For assay [1], the system named is Phakopsora pachyrhizi. The assay can be described thus: Asian Soybean Rust fungicidal activity (PHAKPA). The note with it: Phakopsora pachyrhizi, in Glycine max.
Assay [2] has as its system Puccinia triticina. The assay can be described thus: Wheat Brown Rust fungicidal activity (PUCCRT). In kind it is in vivo. As to conditions: for pest or weed control at 121.5 g/ha: Low Volume Cereal Activity at 121.5 g/Ha; for pest or weed control at 100 ppm: wheat, high volume.
The subject of assay [3] is Zymoseptoria tritici. The assay can be described thus: Leaf Blotch of Wheat fungicidal activity (SEPTTR). In kind it is in vivo. The note with it: for pest or weed control at 121.5 g/ha: Low Volume Cereal Activity at 121.5 g/Ha; for pest or weed control at 100 ppm: wheat, high volume.
Where [4] appears, read: 24 h, read-out: PHAKPA 1DP % Control rating, soybean, high volume, 25 ppm, 1 Day Protectant.
The mark [5] stands for this setting: 72 h, read-out: PHAKPA 3DC % Control rating, soybean, high volume, 25 ppm, 3 Day Curative.
[6] abbreviates: 24 h, 1 Day Protectant, read-out: PUCCRT 1DP (Wheat Brown Rust, 1 Day Protectant).
[7] abbreviates: 72 h, 3 Day Curative, read-out: PUCCRT 3DC (Wheat Brown Rust, 3 Day Curative).
[8] abbreviates: 24 h, 1 Day Protectant, read-out: SEPTTR 1DP (Wheat Leaf Blotch, 1 Day Protectant).
Setting [9] is: 72 h, 3 Day Curative, read-out: SEPTTR 3DC (Wheat Leaf Blotch, 3 Day Curative).
[10] abbreviates: 24 h, 1 Day Protectant, read-out: PUCCRT 1DP % Control rating.
Where [11] appears, read: 72 h, 3 Day Curative, read-out: PUCCRT 3DC % Control rating.
Setting [12] is: 24 h, 1 Day Protectant, read-out: SEPTTR 1DP % Control rating.
The mark [13] stands for this setting: 72 h, 3 Day Curative, read-out: SEPTTR 3DC % Control rating.

24 molecules from patent US20180002288A1, “USE OF PICOLINAMIDES AS FUNGICIDES” (DOW AGROSCIENCES LLC, priority 2014, published 2018) can be followed below.

Like-named read-outs stand apart in the source and are kept apart here.

For `COc1ccnc(C(=O)N[C@@H](C)C(=O)O[C@@H](C)[C@H](OCC2CC2)c2ccccc2)c1OCOC(C)=O` [Example 182], the pest or weed control at 25 ppm in assay [1] (setting [4]) is above 80%; in assay [1] (setting [5]), below 80%. In addition, the pest or weed control at 121.5 g/ha in assay [2] (setting [6]), in assay [2] (setting [7]), in assay [3] (setting [8]) and in assay [3] (setting [9]) was above 80% each time.

Regarding `COc1ccnc(C(=O)N[C@@H](C)C(=O)O[C@@H](C)[C@H](Oc2ccccc2)c2ccccc2)c1OC(C)=O` [Example 184], the pest or weed control at 25 ppm in assay [1] (setting [4]) and in assay [1] (setting [5]) was below 80% throughout. The pest or weed control at 121.5 g/ha in assay [2] (setting [6]), in assay [2] (setting [7]), in assay [3] (setting [8]) and in assay [3] (setting [9]) was above 80% each time.

For the molecule `COc1ccnc(C(=O)N[C@@H](C)C(=O)O[C@@H](C)[C@H](Oc2cccc(F)c2)c2ccccc2)c1OC(C)=O` [Example 188], the pest or weed control at 25 ppm in assay [1] (setting [4]) was above 80%; in assay [1] (setting [5]), below 80%. Besides, the pest or weed control at 121.5 g/ha in assay [2] (setting [6]), in assay [2] (setting [7]), in assay [3] (setting [8]) and in assay [3] (setting [9]) was above 80% throughout.

Take `COc1ccnc(C(=O)N[C@@H](C)C(=O)O[C@@H](C)[C@H](Oc2ccccc2Cl)c2ccccc2)c1OCOC(C)=O` [Example 204]: the pest or weed control at 25 ppm was above 80% in assay [1] (setting [4]) and below 80% in assay [1] (setting [5]). Moreover, the pest or weed control at 121.5 g/ha in assay [2] (setting [6]) is above 80%; in assay [2] (setting [7]), above 80%; in assay [3] (setting [8]), below 80%; in assay [3] (setting [9]), above 80%.

In the case of `COc1ccnc(C(=O)N[C@@H](C)C(=O)O[C@@H](C)[C@H](OCC2CC2)c2cccc(-c3ccccc3)c2)c1OCOC(C)=O` [Example 220], the pest or weed control at 25 ppm in assay [1] (setting [4]) was above 80%; in assay [1] (setting [5]), below 80%. Also, the pest or weed control at 121.5 g/ha was above 80% in assay [2] (setting [6]), above 80% in assay [2] (setting [7]), below 80% in assay [3] (setting [8]) and above 80% in assay [3] (setting [9]).

For `COc1ccnc(C(=O)N[C@@H](C)C(=O)O[C@@H](C)[C@H](OCC(C)C)c2ccccc2)c1OC(C)=O` [Example 225], the pest or weed control at 25 ppm in assay [1] (setting [4]) was above 80%; in assay [1] (setting [5]) it was below 80%. In addition, the pest or weed control at 121.5 g/ha is above 80% in assay [2] (setting [6]), above 80% in assay [2] (setting [7]), below 80% in assay [3] (setting [8]) and above 80% in assay [3] (setting [9]).

Take `CCCO[C@H](c1ccccc1)[C@H](C)OC(=O)[C@H](C)NC(=O)c1nccc(OC)c1OC(C)=O` [Example 228]: the pest or weed control at 25 ppm in assay [1] (setting [4]) is above 80%; in assay [1] (setting [5]), below 0%. The pest or weed control at 121.5 g/ha is above 80% in assay [2] (setting [6]), above 80% in assay [2] (setting [7]), below 80% in assay [3] (setting [8]) and above 80% in assay [3] (setting [9]).

On to `COc1ccnc(C(=O)N[C@@H](C)C(=O)O[C@@H](C)[C@@H](OC)c2ccccc2)c1OCOC(C)=O` [Example 230], for which the pest or weed control at 25 ppm in assay [1] (setting [4]) and in assay [1] (setting [5]) was below 80% in each case. Further, the pest or weed control at 121.5 g/ha in assay [2] (setting [6]) was above 80%; in assay [2] (setting [7]), above 80%; in assay [3] (setting [8]), below 0%; in assay [3] (setting [9]), above 80%.

As to `COc1ccnc(C(=O)N[C@@H](C)C(=O)O[C@@H](C)[C@H](OCC2CC2)c2ccccc2)c1OC(C)=O` [Example 233], the pest or weed control at 25 ppm in assay [1] (setting [4]) was above 80%; in assay [1] (setting [5]), below 80%. For the same molecule, the pest or weed control at 121.5 g/ha in assay [2] (setting [6]), in assay [2] (setting [7]), in assay [3] (setting [8]) and in assay [3] (setting [9]) was above 80% each time.

`COc1ccnc(C(=O)N[C@@H](C)C(=O)O[C@@H](C)[C@H](Oc2ccccc2)c2ccc(F)cc2)c1OCOC(C)=O` [Example 241]: the values for the pest or weed control at 25 ppm in assay [1] (setting [4]) and in assay [1] (setting [5]) were above 80% and below 0%, respectively. Also, the pest or weed control at 121.5 g/ha in assay [2] (setting [6]), in assay [2] (setting [7]), in assay [3] (setting [8]) and in assay [3] (setting [9]) was above 80% each time.

As for `COc1ccnc(C(=O)N[C@@H](C)C(=O)O[C@@H](C)[C@H](Oc2ccccc2)c2ccc(F)cc2)c1OC(C)=O` [Example 242], the pest or weed control at 25 ppm in assay [1] (setting [4]) is above 80%; in assay [1] (setting [5]), below 80%. In addition, the pest or weed control at 121.5 g/ha in assay [2] (setting [6]), in assay [2] (setting [7]), in assay [3] (setting [8]) and in assay [3] (setting [9]) was above 80% in each case.

Take `COc1ccnc(C(=O)N[C@@H](C)C(=O)O[C@@H](C)[C@H](Oc2ccc(C)cc2)c2ccccc2)c1OC(C)=O` [Example 246]: the pest or weed control at 121.5 g/ha in assay [2] (setting [6]), in assay [2] (setting [7]), in assay [3] (setting [8]) and in assay [3] (setting [9]) was above 80% in each case.

Take `COc1ccnc(C(=O)N[C@@H](C)C(=O)O[C@@H](C)[C@H](Oc2ccc(C)cc2)c2ccc(F)cc2)c1OC(C)=O` [Example 247]: the pest or weed control at 121.5 g/ha in assay [2] (setting [6]), in assay [2] (setting [7]), in assay [3] (setting [8]) and in assay [3] (setting [9]) was above 80% throughout.

Take `COc1ccnc(C(=O)N[C@@H](C)C(=O)O[C@@H](C)[C@H](Oc2ccc(C)cc2)c2ccccc2)c1OCOC(C)=O` [Example 248]: the pest or weed control at 121.5 g/ha in assay [2] (setting [6]), in assay [2] (setting [7]), in assay [3] (setting [8]) and in assay [3] (setting [9]) was above 80% each time.

In the case of `COc1ccnc(C(=O)N[C@@H](C)C(=O)O[C@@H](C)[C@H](Oc2ccc(C)cc2)c2ccc(F)cc2)c1OCOC(C)=O` [Example 249], the pest or weed control at 121.5 g/ha in assay [2] (setting [6]), in assay [2] (setting [7]), in assay [3] (setting [8]) and in assay [3] (setting [9]) was above 80% throughout.

Take `COc1ccnc(C(=O)N[C@@H](C)C(=O)O[C@@H](C)[C@H](Oc2ccccc2)c2ccc(F)cc2F)c1OC(C)=O` [Example 251]: the pest or weed control at 121.5 g/ha in assay [2] (setting [6]), in assay [2] (setting [7]), in assay [3] (setting [8]) and in assay [3] (setting [9]) was above 80% throughout.

As to `COc1ccnc(C(=O)N[C@@H](C)C(=O)O[C@@H](C)[C@H](Oc2ccc(F)cc2)c2ccc(C)cc2)c1OCOC(C)=O` [Example 253], the pest or weed control at 121.5 g/ha in assay [2] (setting [6]), in assay [2] (setting [7]), in assay [3] (setting [8]) and in assay [3] (setting [9]) was above 80% in each case.

In the case of `COc1ccnc(C(=O)N[C@@H](C)C(=O)O[C@@H](C)[C@H](Oc2ccc(F)cc2)c2ccc(F)cc2)c1OCOC(C)=O` [Example 254], the pest or weed control at 121.5 g/ha in assay [2] (setting [6]), in assay [2] (setting [7]), in assay [3] (setting [8]) and in assay [3] (setting [9]) was above 80% throughout.

Consider `COc1ccnc(C(=O)N[C@@H](C)C(=O)O[C@@H](C)[C@H](Oc2ccc(C)cc2)c2ccc(C)cc2)c1OCOC(C)=O` [Example 257], for which the pest or weed control at 121.5 g/ha in assay [2] (setting [6]), in assay [2] (setting [7]), in assay [3] (setting [8]) and in assay [3] (setting [9]) was above 80% each time.

For the molecule `COc1cccc([C@@H](Oc2ccccc2)[C@H](C)OC(=O)[C@H](C)NC(=O)c2nccc(OC)c2OCOC(C)=O)c1` [Example 258], the pest or weed control at 121.5 g/ha in assay [2] (setting [6]), in assay [2] (setting [7]), in assay [3] (setting [8]) and in assay [3] (setting [9]) was above 80% throughout.

On to `COc1cc(F)ccc1[C@@H](OCC(F)F)[C@H](C)OC(=O)[C@H](C)NC(=O)c1nccc(OC)c1O` [Example 288], for which the pest or weed control at 100 ppm in assay [2] (setting [10]) was above 80%; in assay [2] (setting [11]), above 80%; in assay [3] (setting [12]) it was below 80%; in assay [3] (setting [13]), above 80%.

As for `COc1cc(F)ccc1[C@@H](OCC1CC1)[C@H](C)OC(=O)[C@H](C)NC(=O)c1nccc(OC)c1O` [Example 289], the pest or weed control at 100 ppm in assay [2] (setting [10]), in assay [2] (setting [11]), in assay [3] (setting [12]) and in assay [3] (setting [13]) was above 80% throughout.

Turning to `COc1cc(F)ccc1[C@@H](OC(=O)C(C)(C)C)[C@H](C)OC(=O)[C@H](C)NC(=O)c1nccc(OC)c1O` [Example 290], the pest or weed control at 100 ppm in assay [2] (setting [10]), in assay [2] (setting [11]), in assay [3] (setting [12]) and in assay [3] (setting [13]) was above 80% each time.

`COc1cc(F)ccc1[C@@H](OC(=O)C1CC1)[C@H](C)OC(=O)[C@H](C)NC(=O)c1nccc(OC)c1O` [Example 291]: the pest or weed control at 100 ppm is below 80% in assay [2] (setting [10]), below 80% in assay [2] (setting [11]), below 0% in assay [3] (setting [12]) and above 80% in assay [3] (setting [13]).
